Test results from patent US10414811B2, “Protease-resistant lipidated GLP-1 analogs” (MEDIMMUNE LIMITED, priority 2015, dated 2019).
Where two headings read alike, the source gives them in different places. Numbered stars: 1 amine (or outer) side, 2 acyl side, 3 side chain; on linkers, the order of the positions; unused ones are H or OH. Square brackets hold non-standard residues; d marks the D form. Side chains are listed from the residue outwards. Peptide text beside a SMILES is read from it. * marks the point of attachment. C18 diacid = O=C(O)CCCCCCCCCCCCCCCCC(=O)*; γGlu = O=C(O)[C@H](CCC(=O)[*:2])N[*:1]; Palmitoyl = CCCCCCCCCCCCCCCC(=O)*; αMeF = C[C@](N)(Cc1ccccc1)C(=O)O; αMeK = C[C@](N)(CCCCN)C(=O)O; αMeS = C[C@](N)(CO)C(=O)O; AEEA = NCCOCCOCC(=O)O; Aib = CC(C)(N)C(=O)O

Key:
Type in all cases: cell-based
[1] = molecular target: T1, human glucose-dependent insulinotropic peptide receptor (GIPR) (Homo sapiens, UniProt P48546); assay: cAMP assay, human GIPR cells; settings: cAMP assay
T1 construct: expressed in transfected cells
T1 sequence (P48546 22-466): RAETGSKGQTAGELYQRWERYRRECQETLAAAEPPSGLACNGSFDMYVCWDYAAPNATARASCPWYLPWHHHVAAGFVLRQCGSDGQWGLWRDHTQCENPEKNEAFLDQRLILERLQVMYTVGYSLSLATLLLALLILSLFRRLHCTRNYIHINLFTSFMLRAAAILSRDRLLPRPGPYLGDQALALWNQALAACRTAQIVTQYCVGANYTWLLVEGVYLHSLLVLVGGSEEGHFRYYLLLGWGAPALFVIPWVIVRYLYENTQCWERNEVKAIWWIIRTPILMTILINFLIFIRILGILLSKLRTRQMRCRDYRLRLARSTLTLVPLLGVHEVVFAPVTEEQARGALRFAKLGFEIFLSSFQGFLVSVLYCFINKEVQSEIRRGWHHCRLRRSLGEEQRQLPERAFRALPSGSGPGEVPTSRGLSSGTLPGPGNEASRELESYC
Summary of the method: (§1)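 Peptide-stimulated cAMP measured by two-step HTRF after a 30 min room-temperature incubation with receptor-expressing cells (hGLP-1R, hGIPR at 1×10^5 cells/ml; hGCGR at 2×10^5 cells/ml). Duplicate dilutions; EC50 from 4-parameter logistic fit of % Delta F.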

[2] = molecular target: T2, GLP-1R (INS1e assay) (Rattus norvegicus, UniProt P32301); assay: INS1e assay, cAMP activity at GLP-1R; settings: mono-lipidated peptides
T2 construct: endogenous in cells; host or cells: INS-1E cells
T2 sequence (P32301 22-463): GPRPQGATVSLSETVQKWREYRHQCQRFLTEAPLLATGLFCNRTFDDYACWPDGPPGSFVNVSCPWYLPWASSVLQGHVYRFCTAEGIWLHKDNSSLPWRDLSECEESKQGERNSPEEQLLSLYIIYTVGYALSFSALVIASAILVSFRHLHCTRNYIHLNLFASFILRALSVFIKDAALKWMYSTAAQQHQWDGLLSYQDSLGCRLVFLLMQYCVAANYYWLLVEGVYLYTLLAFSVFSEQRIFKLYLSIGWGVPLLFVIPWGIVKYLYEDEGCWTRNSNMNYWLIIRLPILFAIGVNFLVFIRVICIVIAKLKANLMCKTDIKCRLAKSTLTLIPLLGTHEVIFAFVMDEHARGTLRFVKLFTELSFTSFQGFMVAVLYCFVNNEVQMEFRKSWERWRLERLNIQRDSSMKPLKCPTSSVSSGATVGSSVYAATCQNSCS
Summary of the method: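 It pairs cAMP-d2 acceptor with anti-cAMP cryptate donor, both prepared 1/20 in conjugate/lysis buffer, applied as a two-step protocol.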

[3] = molecular target: T3, human glucagon receptor (GCGR) (Homo sapiens, UniProt P47871); assay: cAMP assay, human GCGR cells; settings: cAMP assay
T3 construct: expressed in transfected cells
Summary of the method: as §1

[4] = molecular target: T4, human GLP-1 receptor (GLP-1R) (Homo sapiens, UniProt P43220); assay: cAMP assay, human GLP-1R cells
T4 construct: expressed in transfected cells
Summary of the method: as §1

[5] = first determination (n1), read-out: Primary assay EC50 GIP-R (n1)
[6] = second determination (n2), read-out: Primary assay EC50 GIP-R (n2)
[7] = mean of n1 and n2, read-out: INS1e assay EC50 Mean pM GLP-1R
[8] = replicate n1, read-out: INS1e assay EC50 GLP-1R n1
[9] = replicate n2, read-out: INS1e assay EC50 GLP-1R n2
[10] = first determination (n1), read-out: Primary assay EC50 Gluc-R (n1)
[11] = second determination (n2), read-out: Primary assay EC50 Gluc-R (n2)
[12] = cAMP assay, first determination (n1), read-out: Primary assay EC50 GLP-1R n1
[13] = cAMP assay, second determination (n2), read-out: Primary assay EC50 GLP-1R n2
[14] = mean of n1 and n2, read-out: Mean pM GLP-1R

T4 sequence (P43220 24-463): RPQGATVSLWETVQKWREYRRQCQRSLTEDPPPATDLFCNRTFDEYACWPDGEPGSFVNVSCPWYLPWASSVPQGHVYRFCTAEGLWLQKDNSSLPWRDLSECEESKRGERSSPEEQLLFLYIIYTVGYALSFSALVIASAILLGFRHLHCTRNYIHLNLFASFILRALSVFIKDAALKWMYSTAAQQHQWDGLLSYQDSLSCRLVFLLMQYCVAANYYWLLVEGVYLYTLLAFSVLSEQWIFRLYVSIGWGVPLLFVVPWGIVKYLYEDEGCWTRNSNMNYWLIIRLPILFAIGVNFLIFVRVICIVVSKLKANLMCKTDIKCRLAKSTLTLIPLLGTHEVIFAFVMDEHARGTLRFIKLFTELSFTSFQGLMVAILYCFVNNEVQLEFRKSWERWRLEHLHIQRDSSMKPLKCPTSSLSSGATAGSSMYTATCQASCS
T3 sequence (P47871 26-477): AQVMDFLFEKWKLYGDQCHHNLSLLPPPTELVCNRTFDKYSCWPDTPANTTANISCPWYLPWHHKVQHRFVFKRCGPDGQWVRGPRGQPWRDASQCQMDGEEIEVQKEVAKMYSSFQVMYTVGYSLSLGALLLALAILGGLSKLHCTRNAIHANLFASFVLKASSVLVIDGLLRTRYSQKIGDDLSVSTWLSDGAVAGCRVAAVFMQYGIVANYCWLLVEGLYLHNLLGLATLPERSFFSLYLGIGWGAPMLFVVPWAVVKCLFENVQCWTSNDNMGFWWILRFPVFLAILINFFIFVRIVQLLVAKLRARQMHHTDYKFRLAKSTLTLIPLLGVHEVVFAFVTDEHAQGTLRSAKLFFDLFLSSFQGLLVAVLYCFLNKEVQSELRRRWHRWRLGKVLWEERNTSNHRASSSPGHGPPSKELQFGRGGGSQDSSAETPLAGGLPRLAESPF

Row | Structure (SMILES) | EC50 [1, 5] [nM] | EC50 [1, 6] [nM] | EC50 [2, 7] [pM] | EC50 [2, 8] [pM] | EC50 [2, 9] [pM] | EC50 [3, 10] [nM] | EC50 [3, 11] [nM] | EC50 [4, 12] [pM] | EC50 [4, 13] [pM] | EC50 [4, 14] [pM]
1 | CC[C@H](C)[C@H](NC(=O)[C@H](CCCCNC(=O)COCCOCCNC(=O)COCCOCCNC(=O)CC[C@H](NC(=O)CCCCCCCCCCCCCCCCC(=O)O)C(=O)O)NC(=O)[C@H](CCC(=O)O)NC(=O)[C@](C)(CCCCN)NC(=O)[C@H](C)NC(=O)[C@H](C)NC(=O)[C@H](CCC(=O)O)NC(=O)CNC(=O)[C@H](CCC(=O)O)NC(=O)[C@H](CC(C)C)NC(=O)[C@](C)(Cc1ccccc1)NC(=O)[C@H](CO)NC(=O)[C@](C)(CO)NC(=O)[C@@H](NC(=O)[C@H](CC(=O)O)NC(=O)[C@H](CO)NC(=O)[C@@H](NC(=O)[C@](C)(Cc1ccccc1)NC(=O)[C@H](CO)NC(=O)CNC(=O)[C@H](CCC(=O)O)NC(=O)C(C)(C)NC(=O)[C@@H](N)Cc1c[nH]cn1)[C@@H](C)O)C(C)C)C(=O)N[C@@H](C)C(=O)N[C@@](C)(Cc1ccccc1)C(=O)N[C@H](C(=O)N[C@H](C(=O)N[C@@](C)(CCCCN)C(=O)NCC(=O)NCC(N)=O)C(C)C)C(C)C [compound 107] | ≥ 26 | ≥ 25.6 | 8460 | 5230 | 11700 | ≥ 26 | ≥ 25.6 | 83 | 70.5 | 77
2 | CCCCCCCCCCCCCCCC(=O)N[C@@H](CCC(=O)NCCCC[C@H](NC(=O)[C@@H](NC(=O)[C@@H](NC(=O)[C@](C)(Cc1ccccc1)NC(=O)[C@H](C)NC(=O)[C@@H](NC(=O)[C@](C)(Cc1ccccc1)NC(=O)[C@H](CCC(=O)O)NC(=O)[C@](C)(CCCCN)NC(=O)[C@H](C)NC(=O)[C@H](C)NC(=O)[C@H](CCC(=O)O)NC(=O)CNC(=O)[C@H](CCC(=O)O)NC(=O)[C@H](CC(C)C)NC(=O)[C@](C)(Cc1ccccc1)NC(=O)[C@H](CO)NC(=O)[C@](C)(CO)NC(=O)[C@@H](NC(=O)[C@H](CC(=O)O)NC(=O)[C@H](CO)NC(=O)[C@@H](NC(=O)[C@](C)(Cc1ccccc1)NC(=O)[C@H](CO)NC(=O)CNC(=O)[C@H](CCC(=O)O)NC(=O)C(C)(C)NC(=O)[C@@H](N)Cc1c[nH]cn1)[C@@H](C)O)C(C)C)[C@@H](C)CC)C(C)C)C(C)C)C(=O)NCC(=O)NCC(N)=O)C(=O)O [compound 72] | ≥ 28 | ≥ 28 | 6160 | 4260 | 8070 | ≥ 28 | ≥ 28 | 46 | 52 | 49
3 | CCCCCCCCCCCC(=O)NCCOCCOCC(=O)NCCOCCOCC(=O)NCCCC[C@H](NC(=O)[C@H](C)NC(=O)[C@H](C)NC(=O)[C@H](CCC(=O)O)NC(=O)CNC(=O)[C@H](CCC(=O)O)NC(=O)[C@H](CC(C)C)NC(=O)[C@](C)(Cc1ccccc1)NC(=O)[C@H](CO)NC(=O)[C@](C)(CO)NC(=O)[C@@H](NC(=O)[C@H](CC(=O)O)NC(=O)[C@H](CO)NC(=O)[C@@H](NC(=O)[C@](C)(Cc1ccccc1)NC(=O)[C@H](CO)NC(=O)CNC(=O)[C@H](CCC(=O)O)NC(=O)C(C)(C)NC(=O)[C@@H](N)Cc1c[nH]cn1)[C@@H](C)O)C(C)C)C(=O)N[C@@H](CCC(=O)O)C(=O)N[C@@](C)(Cc1ccccc1)C(=O)N[C@H](C(=O)N[C@@H](C)C(=O)N[C@@](C)(Cc1ccccc1)C(=O)N[C@H](C(=O)N[C@H](C(=O)N[C@@](C)(CCCCN)C(=O)NCC(=O)NCC(N)=O)C(C)C)C(C)C)[C@@H](C)CC [compound 135] | ≥ 27 | ≥ 27 | 79 | 98.6 | 59.3 | ≥ 27 | ≥ 27 | 5.4 | 4.5 | 5
4 | CCCCCCCCCCCC(=O)NCCOCCOCC(=O)NCCOCCOCC(=O)NCCOCCOCC(=O)NCCCC[C@H](NC(=O)[C@@H](NC(=O)[C@@H](NC(=O)[C@](C)(Cc1ccccc1)NC(=O)[C@H](C)NC(=O)[C@@H](NC(=O)[C@](C)(Cc1ccccc1)NC(=O)[C@H](CCC(=O)O)NC(=O)[C@](C)(CCCCN)NC(=O)[C@H](C)NC(=O)[C@H](C)NC(=O)[C@H](CCC(=O)O)NC(=O)CNC(=O)[C@H](CCC(=O)O)NC(=O)[C@H](CC(C)C)NC(=O)[C@](C)(Cc1ccccc1)NC(=O)[C@H](CO)NC(=O)[C@](C)(CO)NC(=O)[C@@H](NC(=O)[C@H](CC(=O)O)NC(=O)[C@H](CO)NC(=O)[C@@H](NC(=O)[C@](C)(Cc1ccccc1)NC(=O)[C@H](CO)NC(=O)CNC(=O)[C@H](CCC(=O)O)NC(=O)C(C)(C)NC(=O)[C@@H](N)Cc1c[nH]cn1)[C@@H](C)O)C(C)C)[C@@H](C)CC)C(C)C)C(C)C)C(=O)NCC(=O)NCC(N)=O [compound 172] | ≥ 26 | ≥ 26 | 33.8 | 39.6 | 28 | ≥ 26 | ≥ 26 | 1.5 | – | 1.1
5 | CC[C@H](C)[C@H](NC(=O)[C@](C)(Cc1ccccc1)NC(=O)[C@H](CCC(=O)O)NC(=O)[C@](C)(CCCCN)NC(=O)[C@H](C)NC(=O)[C@H](C)NC(=O)[C@H](CCCCNC(=O)COCCOCCNC(=O)COCCOCCNC(=O)CC[C@H](NC(=O)CCCCCCCCCCCCCCCCC(=O)O)C(=O)O)NC(=O)CNC(=O)[C@H](CCC(=O)O)NC(=O)[C@H](CC(C)C)NC(=O)[C@](C)(Cc1ccccc1)NC(=O)[C@H](CO)NC(=O)[C@](C)(CO)NC(=O)[C@@H](NC(=O)[C@H](CC(=O)O)NC(=O)[C@H](CO)NC(=O)[C@@H](NC(=O)[C@](C)(Cc1ccccc1)NC(=O)[C@H](CO)NC(=O)CNC(=O)[C@H](CCC(=O)O)NC(=O)C(C)(C)NC(=O)[C@@H](N)Cc1c[nH]cn1)[C@@H](C)O)C(C)C)C(=O)N[C@@H](C)C(=O)N[C@@](C)(Cc1ccccc1)C(=O)N[C@H](C(=O)N[C@H](C(=O)N[C@@](C)(CCCCN)C(=O)NCC(=O)NCC(N)=O)C(C)C)C(C)C [compound 112] (H-H[Aib]EGS[αMeF]TSDV[αMeS]S[αMeF]LEGK([AEEA-AEEA-γGlu-C18 diacid])AA[αMeK]E[αMeF]IA[αMeF]VV[αMeK]GG-NH2; N-terminus assumed) | ≥ 25 | ≥ 25.4 | 385 | 294 | 476 | ≥ 25 | ≥ 25.4 | – | 5.07 | –
6 | CCCCCCCCCCCCCCCC(=O)N[C@@H](CCC(=O)NCCCC[C@H](NC(=O)[C@H](CCC(=O)O)NC(=O)CNC(=O)[C@H](CCC(=O)O)NC(=O)[C@H](CC(C)C)NC(=O)[C@](C)(Cc1ccccc1)NC(=O)[C@H](CO)NC(=O)[C@](C)(CO)NC(=O)[C@@H](NC(=O)[C@H](CC(=O)O)NC(=O)[C@H](CO)NC(=O)[C@@H](NC(=O)[C@](C)(Cc1ccccc1)NC(=O)[C@H](CO)NC(=O)CNC(=O)[C@H](CCC(=O)O)NC(=O)C(C)(C)NC(=O)[C@@H](N)Cc1c[nH]cn1)[C@@H](C)O)C(C)C)C(=O)N[C@@H](C)C(=O)N[C@@](C)(CCCCN)C(=O)N[C@@H](CCC(=O)O)C(=O)N[C@@](C)(Cc1ccccc1)C(=O)N[C@H](C(=O)N[C@@H](C)C(=O)N[C@@](C)(Cc1ccccc1)C(=O)N[C@H](C(=O)N[C@H](C(=O)N[C@@](C)(CCCCN)C(=O)NCC(=O)NCC(N)=O)C(C)C)C(C)C)[C@@H](C)CC)C(=O)O [compound 82] (H-H[Aib]EGS[αMeF]TSDV[αMeS]S[αMeF]LEGEK([γGlu-Palmitoyl])A[αMeK]E[αMeF]IA[αMeF]VV[αMeK]GG-NH2; N-terminus assumed) | ≥ 27 | ≥ 27 | 195 | 151 | 238 | ≥ 27 | ≥ 27 | 3 | 2 | 2.5
